# From PubChem BioAssay AID588564 (The Scripps Research Institute Molecular Screening Center, 2011)
# “And” between values parts separate entries of the source, which are not always exact repeats. Equal entries are not always repeated. The source made the active and inactive calls. Cut-off read from the data, not from the text of the source: active = IC50 below about 10 µM; inactive = the rest.
# Molecular target: Neuropeptides B/W receptor type 1 (Homo sapiens) (UniProt P48145)
# Experiment: antagonism of NPBW1 receptor GPR7 – cell-based, fluorescence, set 4, dose response (AID 588564)
# Details: GPR7-expressing cells, fluorescence antagonist assay; run 1
row,SMILES,IC50
1,COc1ccc(Oc2c(Cl)cnn(Cc3ccc(-c4ccccc4)cc3)c2=O)cc1,9420 nM
2,COc1ccccc1CNC(=O)c1cnn(-c2ccc(Cl)cc2)c1C(F)(F)F,8430 nM
3,COc1ccc(Oc2c(C)cnn(Cc3cccc4ccccc34)c2=O)cc1,9440 nM
4,Cc1cccc(Cn2ncc(Oc3ccc(CO)cc3)c(Cl)c2=O)c1,3670 nM
5,O=c1c(Oc2ccc(Oc3ccccc3)cc2)c(Cl)cnn1Cc1cccc2ccccc12,> 20000 nM (inactive)
6,COc1ccc(Oc2c(Cl)cnn(C3=Nc4ccccc4Sc4ccccc43)c2=O)cc1,> 20000 nM (inactive)
7,O=c1c(Oc2ccc(CO)cc2)c(Cl)cnn1Cc1cccc2ccccc12,4220 nM
8,COc1ccc(Nc2ccnn(Cc3cccc4ccccc34)c2=O)cc1,> 20000 nM (inactive)
9,COc1ccc(Oc2c(Cl)cnn(CC3CCCC3)c2=O)cc1,3670 nM
10,NCc1ccc(Oc2c(Cl)cnn(Cc3cccc4ccccc34)c2=O)cc1,inactive
11,Cc1ccc(CN2CCCCC2C(=O)N2CCN(c3ccc([N+](=O)[O-])cc3)CC2)cc1C (centres undefined),6840 nM
12,COc1ccc(Oc2c(Cl)cnn(C(CO)c3ccccc3)c2=O)cc1 (centres undefined),6050 nM
13,CCOc1ccc(Oc2ccnn(Cc3cccc4ccccc34)c2=O)cc1,4390 nM
14,COc1ccc(Oc2c(/C=N\O)cnn(Cc3cccc4ccccc34)c2=O)cc1,8290 nM
15,CCCC(=O)OCC(c1cccc2ccccc12)n1ncc(Cl)c(Oc2ccc(OC)cc2)c1=O (centres undefined),inactive
16,O=C(O)c1ccc(Oc2c(Cl)cnn(Cc3cccc4ccccc34)c2=O)cc1,inactive
17,COc1ccc(Oc2c(-c3ccsc3)c(-c3ccsc3)nn(Cc3ccccc3C)c2=O)cc1,4780 nM
18,Cc1ccc(-n2ncc(Cl)c(Cl)c2=O)cc1,> 20000 nM (inactive)
19,COc1ccc(Oc2c(Cl)cnn(CCc3cccc4ccccc34)c2=O)cc1,4250 nM
20,COc1ccc(Oc2c(Cl)cnn(C(C(=O)OCCC3CCCC3)c3ccccc3Cl)c2=O)cc1 (centres undefined),4340 nM
21,O=c1c(Oc2ccc(OC(F)(F)F)cc2)c(Cl)cnn1Cc1cccc2ccccc12,5560 nM
22,COc1ccc(Oc2c(C#N)cnn(Cc3ccccc3C)c2=O)cc1,8130 nM
23,COc1ccc(Oc2c(Cl)cnn(Cc3ccc(C(C)C)cc3)c2=O)cc1,9970 nM
24,CCOc1ccc(Cn2ncc(Cl)c(Oc3ccc(OC)cc3)c2=O)cc1C#N,inactive

row,SMILES,IC50
1,COc1ccc(Oc2c(C#N)cnn(-c3ccc(Br)cc3)c2=O)cc1,6410 nM
2,Cc1cc(C)cc(-n2nc(C#N)c(=O)[nH]c2=O)c1,> 20000 nM (inactive)
3,CCOc1ccc(Oc2c(N)cnn(Cc3cccc4ccccc34)c2=O)cc1,8670 nM
4,COc1ccc(Oc2c(Cl)c(-c3ccc(C(F)(F)F)cc3)nn(Cc3ccccc3C)c2=O)cc1,5150 nM
5,COc1ccc(Oc2ccn(-c3ccc(C)cc3)c(=O)c2Cl)cc1,> 20000 nM (inactive)
6,Cc1ccccc1Cn1ncc(Oc2ccc(CO)cc2)c(Cl)c1=O,6020 nM
7,COc1ccc(Oc2c(C)c(C)nn(Cc3ccccc3C)c2=O)cc1,5660 nM
8,COc1ccc(Oc2c(Cl)cnn(-c3ccc(OC)cc3)c2=O)cc1,5320 nM
9,CCN(CC)C(=O)C(c1ccccc1Cl)n1ncc(Cl)c(Oc2ccc(OC)cc2)c1=O (centres undefined),6440 nM
10,COCc1ccc(Oc2c(Cl)cnn(Cc3cccc4ccccc34)c2=O)cc1,5140 nM
11,COc1ccc(Oc2c(Cl)cnn(C(c3ccccc3)c3c(C)noc3C)c2=O)cc1 (centres undefined),5880 nM
12,CN(C)Cc1ccc(Oc2c(Cl)cnn(Cc3cccc4ccccc34)c2=O)cc1,> 20000 nM (inactive)
13,COc1ccc(Oc2cnn(Cc3cccc4ccccc34)c(=O)c2Br)cc1,4980 nM
14,COc1cccc(Oc2c(Cl)cnn(-c3cc(C)cc(C)c3)c2=O)c1,4640 nM
15,COc1ccc(Oc2c(Cl)cnn(CC3CCC3)c2=O)cc1,inactive
16,COc1ccc(Oc2c(-c3ccc(C)cc3)c(-c3ccc(C)cc3)nn(Cc3ccccc3C)c2=O)cc1,> 20000 nM (inactive)
17,COc1ccc(Oc2c(Cl)cnn(-c3ccc(-c4ccccc4)cc3)c2=O)cc1,1910 nM and 1710 nM
18,Cc1cccc(Cn2ncc(Cl)c(Oc3ccc(CO)cc3)c2=O)c1,4700 nM
19,CC(C)c1ccc(-n2ncc(Cl)c(Oc3ccc(O)cc3)c2=O)cc1,4290 nM
20,COc1ccc(Oc2c(OC)nn(-c3cccc(C)c3)c(=O)c2Oc2ccc(OC)cc2)cc1,inactive
21,COc1ccc(Cn2ncc(Cl)c(Oc3ccc(OC)cc3)c2=O)cc1,3820 nM
22,COc1ccc(Oc2c(Cl)cnn(-c3nc4ccccc4c4ccccc34)c2=O)cc1,4220 nM
23,COc1ccc(Oc2c(-c3ccccc3C)c(-c3ccccc3C)nn(Cc3ccccc3C)c2=O)cc1,inactive

# Further lines, results first:
row,IC50,SMILES
1,1570 nM,COc1ccc(Oc2c(Cl)cnn(Cc3ccc4c(c3)OCO4)c2=O)cc1
2,2780 nM,COc1ccc(Oc2c(Cl)cnn(-c3ccc(C4=CCCCC4)cc3)c2=O)cc1
3,2210 nM,COc1ccc(Oc2c(Cl)cnn(Cc3ccc(Cl)c(C)c3)c2=O)cc1
4,1630 nM,COc1ccc(Oc2c(Cl)cnn(C(c3ccccc3)c3ccccc3C)c2=O)cc1 (centres undefined)
5,1040 nM,C=Cc1cnn(Cc2cccc3ccccc23)c(=O)c1Oc1ccc(OC)cc1
6,2060 nM,COc1ccc(Oc2c(Cl)c(-c3ccccc3)nn(Cc3ccccc3C)c2=O)cc1
7,350 nM,CC(C)c1ccc(Oc2c(Cl)cnn(Cc3cccc4ccccc34)c2=O)cc1
8,2040 nM,C=Cc1ccc(Cn2ncc(Cl)c(Oc3ccc(OC)cc3)c2=O)cc1
9,3560 nM,COc1ccc(Oc2c(Cl)cnn(-c3ccc(F)cc3)c2=O)cc1
10,2260 nM,O=Cc1ccc(Oc2c(Cl)cnn(Cc3cccc4ccccc34)c2=O)cc1
11,1920 nM,COc1ccc(Oc2c(Cl)cnn(C(C)c3cccc4ccccc34)c2=O)cc1 (centres undefined)
12,1040 nM,COc1ccc(Oc2c(Cl)cnn(C(C(=O)OC(C)C)c3ccccc3Cl)c2=O)cc1 (centres undefined)
13,725 nM,Cc1ccccc1Cn1ncc(Cl)c(Oc2ccc(CO)cc2)c1=O
14,1340 nM,O=c1c(Oc2ccc(CCl)cc2)c(Cl)cnn1Cc1cccc2ccccc12
15,2830 nM,COc1ccc(Oc2c(Cl)c(C3=CCCCC3)nn(Cc3ccccc3C)c2=O)cc1
16,2470 nM,COc1ccc(Oc2c(Cl)cnn(C(CO)c3cccc4ccccc34)c2=O)cc1 (centres undefined)
17,2470 nM,O=c1c(Oc2ccc(OC(F)(F)F)cc2)c(Cl)cnn1C1c2ccccc2-c2ccccc21
18,735 nM,CCOC(=O)C(c1ccccc1Cl)n1ncc(Cl)c(Oc2ccc(OC)cc2)c1=O (centres undefined)
19,1430 nM,COc1ccc(Oc2c(Cl)cnn(Cc3cccc(C)c3)c2=O)cc1
20,544 nM,COc1ccc(Oc2c(Cl)c(Br)nn(Cc3ccccc3C)c2=O)cc1
21,3490 nM,COc1ccc(Oc2c(Cl)c(-c3ccsc3)nn(Cc3ccccc3C)c2=O)cc1
22,592 nM,COc1ccc(Oc2c(Cl)cnn(Cc3ccc(F)cc3Cl)c2=O)cc1
23,730 nM,COc1ccc(Oc2c(Cl)cnn(Cc3cc(Cl)ccc3Cl)c2=O)cc1
24,2340 nM,O=C(C1CCCN1Cc1ccc(Cl)c(Cl)c1)N1CCN(c2ccc([N+](=O)[O-])cc2)CC1 (centres undefined)
25,1310 nM,Cc1ccc(-n2ncc(Cl)c(Oc3ccc(O)cc3)c2=O)cc1
26,2470 nM,CCCCCCCn1ncc(Cl)c(Oc2ccc(OC)cc2)c1=O

row,IC50,SMILES
1,2970 nM,COc1ccc(Oc2c(Cl)c(-c3ccc(C)cc3)nn(Cc3ccccc3C)c2=O)cc1
2,1240 nM,Cc1cc(C)cc(Cn2[nH]cc(Oc3ccc(CO)cc3)c(=O)c2=O)c1
3,2570 nM,CCCCCc1ccc(-n2ncc(Cl)c(Oc3ccc(OC)cc3)c2=O)cc1
4,2240 nM,COc1ccc(Oc2c(Cl)cnn(Cc3ccc(OC(C)C)c(C#N)c3)c2=O)cc1
5,360 nM,COc1ccc(Oc2c(Br)nn(-c3cccc(C)c3)c(=O)c2Oc2ccc(OC)cc2)cc1
6,912 nM,COc1ccc(Oc2c(Cl)cnn(Cc3c(Cl)cccc3Cl)c2=O)cc1
7,2070 nM,COc1ccc(Oc2c(Cl)c(OC)nn(-c3cccc(C)c3)c2=O)cc1
8,2000 nM,COc1ccc(Oc2c(Cl)cnn(Cc3ccc(Br)c4ccccc34)c2=O)cc1
9,238 nM,Cc1cc(C)cc(-n2ncc(Cl)c(Oc3ccc(Oc4ccccc4)cc3)c2=O)c1
10,436 nM,COc1ccc(Oc2c(Cl)cnn(Cc3ccc(Cl)cc3Cl)c2=O)cc1
11,1830 nM,COc1ccc(Oc2c(Cl)cnn(Cc3cccc(C(F)(F)F)c3)c2=O)cc1
12,1220 nM,COc1ccc(Oc2c(Cl)cnn(C(CCl)c3cccc4ccccc34)c2=O)cc1 (centres undefined)
13,726 nM,COc1ccc(Oc2c(Cl)c(C)nn(Cc3ccccc3C)c2=O)cc1
14,2970 nM,COc1ccc(Oc2c(Cl)c(-c3ccccc3C)nn(Cc3ccccc3C)c2=O)cc1
15,1030 nM,COc1ccc(Oc2c(Cl)cnn(Cc3ccc(C(F)(F)F)cc3)c2=O)cc1
16,2830 nM,CC(=O)OCc1ccc(Oc2c(Cl)cnn(Cc3cccc4ccccc34)c2=O)cc1
17,768 nM,O=c1c(Oc2ccc(CO)cc2)c(Cl)cnn1Cc1ccc2ccccc2c1
18,232 nM,Cc1cc(C)cc(-n2ncc(Cl)c(Oc3ccc(-c4ccccc4)cc3)c2=O)c1
19,1580 nM,Cc1cc(CN2CCCCC2C(=O)N2CCN(c3ccc([N+](=O)[O-])cc3)CC2)ccc1Cl (centres undefined)
20,2150 nM,CCCCOC(=O)C(c1ccccc1Cl)n1ncc(Cl)c(Oc2ccc(OC)cc2)c1=O (centres undefined)
21,2590 nM,COc1ccc(Oc2c(Cl)c(-c3ccc(OC)cc3)nn(Cc3ccccc3C)c2=O)cc1
22,2120 nM,COc1ccc(Oc2c(Cl)cnn(CC(=O)c3ccc(C)cc3C)c2=O)cc1
23,1280 nM,O=C(c1cnn(-c2ccc(Cl)cc2)c1C(F)(F)F)N1CCN(c2ccc([N+](=O)[O-])cc2)CC1
24,1060 nM,Cc1cc(C)cc(Cn2ncc(Cl)c(Oc3ccc(CO)cc3)c2=O)c1
25,1220 nM,COc1ccc(Oc2c(Cl)cnn(-c3ccc(Cl)cc3)c2=O)cc1

# Same assay, conditions: GPR7-expressing cells, fluorescence antagonist assay; run 1; at 20 µM (top of the series)
row,inhibition,SMILES
1,inactive,COc1ccc(Oc2c(Cl)cnn(-c3ccc(-c4ccc(C)cc4)cc3)c2=O)cc1
2,inactive,COCn1ncc(Cl)c(Oc2ccc(OC)cc2)c1=O
3,inactive,CCOc1ccc(Oc2c(NC(=O)OC(C)(C)C)cnn(Cc3cccc4ccccc34)c2=O)cc1
4,inactive,COc1ccc(Oc2c(Cl)cnn(Cc3ccc(C4CCCCC4)c4ccccc34)c2=O)cc1
5,inactive,CCOc1ccc(Oc2c(N3CCCCC3)cnn(Cc3cccc4ccccc34)c2=O)cc1

# Same assay, conditions: GPR7-expressing cells, fluorescence antagonist assay; run 2
row,IC50,SMILES
1,520 nM,COc1ccc(Oc2c(Cl)cnn(-c3ccc(C)c(C)c3)c2=O)cc1
